Reference: patent US20100048462A1, “TRUNCATED PTH PEPTIDES WITH A CYCLIC CONFORMATION” (Zealand Pharma A/S, priority 2006, published 2010)
Bridge positions count the residues as written; N and C are the ends. Square brackets hold non-standard residues; d marks the D form. Peptide text beside a SMILES is read from it. hArg = N=C(N)NCCCC[C@H](N)C(=O)O; Met(O) = CS(=O)CC[C@H](N)C(=O)O; Ac6c = NC1(C(=O)O)CCCCC1; Ac5c = NC1(C(=O)O)CCCC1; Aib = CC(C)(N)C(=O)O

T1: Saos-2 PTH1R (Homo sapiens, UniProt Q03431)
T1 construct: endogenous in cells; host or cells: Saos-2
T1 sequence (Q03431 27-593): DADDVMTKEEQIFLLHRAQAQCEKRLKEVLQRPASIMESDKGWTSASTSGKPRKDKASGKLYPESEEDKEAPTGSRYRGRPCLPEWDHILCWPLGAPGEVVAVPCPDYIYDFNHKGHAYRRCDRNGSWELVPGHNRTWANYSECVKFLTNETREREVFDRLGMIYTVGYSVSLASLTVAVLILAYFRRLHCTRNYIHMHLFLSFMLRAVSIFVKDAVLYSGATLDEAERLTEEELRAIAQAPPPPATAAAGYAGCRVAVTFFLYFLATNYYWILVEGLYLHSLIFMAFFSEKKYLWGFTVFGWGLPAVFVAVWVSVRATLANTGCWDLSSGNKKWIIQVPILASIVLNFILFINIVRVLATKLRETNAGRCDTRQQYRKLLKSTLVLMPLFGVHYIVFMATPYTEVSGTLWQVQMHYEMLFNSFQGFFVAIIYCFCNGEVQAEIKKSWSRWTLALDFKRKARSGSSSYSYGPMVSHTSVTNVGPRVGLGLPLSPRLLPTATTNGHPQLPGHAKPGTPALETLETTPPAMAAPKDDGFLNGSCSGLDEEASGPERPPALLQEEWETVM

B1: H-Ac5c-Val-Aib-Glu-Ile-Gln-Leu-Leu-His-Gln-Har-Ala-Lys( )-Trp-Leu-Asn-Asp( )-OH (peptide)
chain: H-[Ac5c]V[Aib]EIQLLHQ[hArg]AKWLND-OH
modifications: lactam 13-17
SMILES: CC[C@H](C)[C@H](NC(=O)[C@H](CCC(=O)O)NC(=O)C(C)(C)NC(=O)[C@@H](NC(=O)C1(N)CCCC1)C(C)C)C(=O)N[C@@H](CCC(N)=O)C(=O)N[C@@H](CC(C)C)C(=O)N[C@@H](CC(C)C)C(=O)N[C@@H](Cc1c[nH]cn1)C(=O)N[C@@H](CCC(N)=O)C(=O)N[C@@H](CCCCNC(=N)N)C(=O)N[C@@H](C)C(=O)N[C@H]1CCCCNC(=O)C[C@@H](C(=O)O)NC(=O)[C@H](CC(N)=O)NC(=O)[C@H](CC(C)C)NC(=O)[C@H](Cc2c[nH]c3ccccc23)NC1=O

How the values were obtained:
[1] = target: T1, Saos-2 PTH1R; assay: cAMP-efficacy assay in Saos-2 cells; assay type: cell-based; details: for EC50: cAMP, 100 μM IBMX, 37° C. 15 min, suffix of label = salt tested; for Emax ± SEM: relative effect to the control (SEQ ID NO: 32)
Method: Peptides were dissolved in phosphate buffered saline and further diluted in Tyrode's buffer (TB, Sigma-Aldrich) containing 0.1% BSA and 100 μM isobutyl-methyl-xanthine (IBMX, Sigma-Aldrich). Saos-2 cells were seeded at 50,000 cells/well in 96-microtiter plates and grown for two days before the efficacy assays. On the day of analysis, the growth medium was carefully removed by suction. Cells were washed once with 200 μl TB/0.1% BSA. The buffer was replaced with 100 μl reaction mixture (±test peptide), and incubated at 37° C. for 15 min. The reaction was stopped by addition of 25 μl of ice-cold 0.5 M HCl. Cells were in the following incubated on ice for 60 min. 75 μl acetate-buffer, pH6.2, was added to each well of a 96-well cAMP FlashPlate (Perkin-Elmer). […] FlashPlates were incubated overnight at 4° C., emptied by suction and counted in a TopCounter (Packard).
Determinations were performed in single determinations or triplicates at all doses. […] Standards were included as single determinations, duplicates or triplicates in each experiment, preferentially on each plate.
Concentration-dependent cAMP responses were imported into GraphPad Prism vers. 4 (GraphPad Software), transformed and plotted. […] Thus, a four-parameter logistic equation was used for determination of the EC50 values. Curves were fitted with a function for sigmoidal dose response curve (variable slope) non-linear fit Y=Bottom+(Top-Bottom)/(1+10̂((LogEC50−X)*HillSlope)) where X is the logarithm of concentration and Y is the response. Y starts at Bottom and goes to Top with a sigmoid shape. pEC50, Hill-coefficient and the maximally inducible concentration of cAMP (Emax) were evaluated.
Overall statistical differences were analyzed with Statistica (Statsoft) using one-way ANOVA. Post-hoc comparisons were made by the use of Fisher's Least Significance Test. Results were considered significant, when p was lower than 0.05.

[2] = target: Saos-2 PTH1R (UniProt Q03431); assay: cell-based or functional assay

Molecule	EC50 [1]	Emax ± SEM [1]	further results
CC[C@H](C)[C@H](NC(=O)[C@H](CCC(=O)O)NC(=O)C(C)(C)NC(=O)[C@@H](NC(=O)C1(N)CCCCC1)C(C)C)C(=O)N[C@@H](CCC(N)=O)C(=O)N[C@@H](CC(C)C)C(=O)N[C@@H](CC(C)C)C(=O)N[C@@H](Cc1c[nH]cn1)C(=O)N[C@@H](CCC(N)=O)C(=O)N[C@@H](CCCCNC(=N)N)C(=O)N[C@@H](C)C(=O)N[C@H]1CCCCNC(=O)C[C@@H](C(N)=O)NC(=O)[C@H](CC(N)=O)NC(=O)[C@H](CC(C)C)NC(=O)[C@H](Cc2c[nH]c3ccccc23)NC1=O [SEQ ID NO: 10, H-Ac6c-Val-Aib-Glu-Ile-Gln-Leu-Leu-His-Gln-Har-Ala-Lys( )-Trp-Leu-Asn-Asp( )-NH2] (H-[Ac6c]V[Aib]EIQLLHQ[hArg]AKWLND-NH2; lactam 13-17)	12.6 nM	1.08 ± 0.06	–
CC[C@H](C)[C@H](NC(=O)[C@H](CCC(=O)O)NC(=O)C(C)(C)NC(=O)[C@@H](NC(=O)C1(N)CCCC1)C(C)C)C(=O)N[C@@H](CCC(N)=O)C(=O)N[C@@H](CC(C)C)C(=O)N[C@@H](CCSC)C(=O)N[C@@H](Cc1c[nH]cn1)C(=O)N[C@@H](CCC(N)=O)C(=O)N[C@@H](CCCCNC(=N)N)C(=O)N[C@@H](C)C(=O)N[C@H]1CCCCNC(=O)C[C@@H](C(N)=O)NC(=O)[C@H](CC(N)=O)NC(=O)[C@H](CC(C)C)NC(=O)[C@H](Cc2c[nH]c3ccccc23)NC1=O [2C, H-Ac5c-Val-Aib-Glu-Ile-Gln-Leu-Met-His-Gln-Har-Ala-Lys( )Trp-Leu-Asn-Asp( )-NH2] (H-[Ac5c]V[Aib]EIQLMHQ[hArg]AKWLND-NH2; lactam 13-17)	6.61 nM	0.94 ± 0.03	–
H-Ac5c-Val-Aib-Glu-Ile-Gln-Leu-Met-His-Gln-Har-Ala-Asp( )-Trp-Leu-Asn-Lys( )-NH2 (peptide)	–	–	Emax, cAMP efficacy assay in Saos-2 cells (6T, trifluoroacetate salt) (relative to control (SEQ ID NO: 32)) [2]: 1.5; pEC50, cAMP efficacy assay in Saos-2 cells (6T, trifluoroacetate salt) [2]: 6.9 -log(M)
CC[C@H](C)[C@H](NC(=O)[C@H](CCC(=O)O)NC(=O)C(C)(C)NC(=O)[C@@H](NC(=O)C1(N)CCCC1)C(C)C)C(=O)N[C@@H](CCC(N)=O)C(=O)N[C@@H](CC(C)C)C(=O)N[C@@H](CCSC)C(=O)N[C@@H](Cc1c[nH]cn1)C(=O)N[C@@H](CCC(N)=O)C(=O)N[C@@H](CCCCNC(=N)N)C(=O)N[C@@H](C)C(=O)N[C@H]1CCCCNC(=O)C[C@@H](C(N)=O)NC(=O)[C@H](CC(=O)O)NC(=O)[C@H](CC(C)C)NC(=O)[C@H](Cc2c[nH]c3ccccc23)NC1=O [SEQ ID NO: 23, H-Ac5c-Val-Aib-Glu-Ile-Gln-Leu-Met-His-Gln-Har-Ala-Lys( )-Trp-Leu-Asp-Asp( )-NH2] (H-[Ac5c]V[Aib]EIQLMHQ[hArg]AKWLDD-NH2; lactam 13-17)	33.1 nM	1.16 ± 0.08	–
H-Ac5c-Val-Aib-Glu-Ile-Gln-Leu-Met-His-Gln-Har-Ala-Lys( )-Phe-Leu-Asn-Asp( )-NH2 (peptide)	–	–	Emax, cAMP efficacy assay in Saos-2 cells (26T, trifluoroacetate salt) (relative to control (SEQ ID NO: 32)) [2]: 1.08; pEC50, cAMP efficacy assay in Saos-2 cells (26T, trifluoroacetate salt) [2]: 7.9 -log(M)
CC[C@H](C)[C@H](NC(=O)[C@H](CCC(=O)O)NC(=O)C(C)(C)NC(=O)[C@@H](NC(=O)C1(N)CCCC1)C(C)C)C(=O)N[C@@H](CCC(N)=O)C(=O)N[C@@H](CC(C)C)C(=O)N[C@@H](CC[S+](C)[O-])C(=O)N[C@@H](Cc1c[nH]cn1)C(=O)N[C@@H](CCC(N)=O)C(=O)N[C@@H](CCCCNC(=N)N)C(=O)N[C@@H](C)C(=O)N[C@H]1CCCCNC(=O)C[C@@H](C(N)=O)NC(=O)[C@H](CC(N)=O)NC(=O)[C@H](CC(C)C)NC(=O)[C@H](Cc2c[nH]c3ccccc23)NC1=O (stereo partly drawn) [SEQ ID NO: 40, H-Ac5c-Val-Aib-Glu-Ile-Gln-Leu-Met(O)-His-Gln-Har-Ala-Lys( )-Trp-Leu-Asn-Asp( )-NH2] (H-[Ac5c]V[Aib]EIQL[Met(O)]HQ[hArg]AKWLND-NH2; lactam 13-17)	126 nM	1.1	–
CC[C@H](C)[C@H](NC(=O)[C@H](CCC(=O)O)NC(=O)C(C)(C)NC(=O)[C@@H](NC(=O)C1(N)CCCC1)C(C)C)C(=O)N[C@@H](CCC(N)=O)C(=O)N[C@@H](CC(C)C)C(=O)N[C@@H](CCSC)C(=O)N[C@@H](Cc1c[nH]cn1)C(=O)N[C@@H](CCC(N)=O)C(=O)N[C@@H](CCCCNC(=N)N)C(=O)N[C@@H](C)C(=O)N[C@@H](CCCCN)C(=O)N[C@@H](Cc1c[nH]c2ccccc12)C(=O)N[C@@H](CC(C)C)C(=O)N[C@@H](CC(N)=O)C(=O)N[C@@H](CC(=O)O)C(=O)O [SEQ ID NO: 38, H-Ac5c-Val-Aib-Glu-Ile-Gln-Leu-Met-His-Gln-Har-Ala-Lys-Trp-Leu-Asn-Asp-OH] (H-[Ac5c]V[Aib]EIQLMHQ[hArg]AKWLND-OH)	100 nM	1.2	–
H-[Ac5c]V[Aib]EIQL[Met(O)]HQ[hArg]AKWLND-NH2 (lactam 13-17) [H-Ac5c-Val-Aib-Glu-Ile-Gln-Leu-Met(O)-His-Gln-Har-Ala-Lys( )-Trp-Leu-Asn-Asp( )-NH2]	–	–	Emax, cAMP efficacy assay in Saos-2 cells (40T, trifluoroacetate salt) (relative to control (SEQ ID NO: 32)) [2]: 1.1; pEC50, cAMP efficacy assay in Saos-2 cells (40T, trifluoroacetate salt) [2]: 6.9 -log(M)
B1	–	–	Emax, cAMP efficacy assay in Saos-2 cells (5T, trifluoroacetate salt) (relative to control (SEQ ID NO: 32)) [2]: 1.16; pEC50, cAMP efficacy assay in Saos-2 cells (5T, trifluoroacetate salt) [2]: 7.14 -log(M)
